From ChEMBL document CHEMBL4373723 (J Med Chem, 2019) come the findings set out here.

Assay [1] has as its target T1, Frizzled-7 (Homo sapiens, UniProt O75084). Description: biochemical. The assay is classed as cell-based, CHO. As to conditions: read-out: Kd.
The target of assay [2] is T1, Frizzled-7. The assay is classed as cell-based. As to conditions: cho.
The target in assay [3] is T1, Frizzled-7. As to conditions: CHO.
Description: Binding affinity to recombinant human Frizzled-7 (Gln33 to Leu185 residues)/human IgG1 chimeric protein expressed in CHO cells assessed as association rate constant by SPR assay

Bridge positions count the residues as written; N and C are the ends. Square brackets hold non-standard residues; d marks the D form. Peptide text beside a SMILES is read from it. I, II: the chains in the order shown. Phe(3,4-Cl2) = N[C@@H](Cc1ccc(Cl)c(Cl)c1)C(=O)O; Phe(4-CF3) = N[C@@H](Cc1ccc(C(F)(F)F)cc1)C(=O)O; Phe(2,4-Cl2) = N[C@@H](Cc1ccc(Cl)cc1Cl)C(=O)O; Ala(cPent) = N[C@@H](CC1CCCC1)C(=O)O; hPhe = N[C@@H](CCc1ccccc1)C(=O)O; Cba = N[C@@H](CC1CCC1)C(=O)O

`CSCC[C@H](NC(=O)[C@@H](NC(=O)[C@H](Cc1cnc[nH]1)NC(=O)[C@H](CSSC[C@H](NC(=O)[C@H](Cc1c[nH]c2ccccc12)NC(=O)[C@H](Cc1ccccc1)NC(=O)[C@H](CCC(=O)O)NC(=O)[C@H](Cc1ccccc1)NC(=O)[C@H](CC(=O)O)NC(=O)[C@H](CC(=O)O)NC(=O)[C@H](CO)NC(C)=O)C(=O)N[C@@H](Cc1cnc[nH]1)C(=O)N[C@H](C(=O)N[C@@H](CCSC)C(=O)N[C@@H](Cc1ccc(O)cc1)C(N)=O)C(C)C)NC(=O)[C@H](Cc1c[nH]c2ccccc12)NC(=O)[C@H](Cc1ccccc1)NC(=O)[C@H](CCC(=O)O)NC(=O)[C@H](Cc1ccccc1)NC(=O)[C@H](CC(=O)O)NC(=O)[C@H](CC(=O)O)NC(=O)[C@H](CO)NC(C)=O)C(C)C)C(=O)N[C@@H](Cc1ccc(O)cc1)C(N)=O` (I: Ac-SDDFEFWCHVMY-NH2 / II: Ac-SDDFEFWCHVMY-NH2; disulfide I:8-II:8): the figures for the Kd at Frizzled-7 [1] and on Frizzled-7 [2] were 122 nM and 62.8 ×10⁻³ /s, respectively. This compound displayed a Ka at Frizzled-7 [3] of 5.3 ×10⁵ /M/s.
Take `CSCC[C@H](NC(=O)[C@@H](NC(=O)[C@H](Cc1cnc[nH]1)NC(=O)[C@H](CSSC[C@H](NC(=O)[C@H](Cc1c[nH]c2ccccc12)NC(=O)[C@H](Cc1ccccc1)NC(=O)[C@H](CCC(=O)O)NC(=O)[C@H](CC1CCC1)NC(=O)[C@H](CC(=O)O)NC(=O)[C@H](CC(=O)O)NC(=O)[C@H](CO)NC(C)=O)C(=O)N[C@@H](Cc1cnc[nH]1)C(=O)N[C@H](C(=O)N[C@@H](CCSC)C(=O)N[C@@H](Cc1ccc(O)cc1)C(N)=O)C(C)C)NC(=O)[C@H](Cc1c[nH]c2ccccc12)NC(=O)[C@H](Cc1ccccc1)NC(=O)[C@H](CCC(=O)O)NC(=O)[C@H](CC1CCC1)NC(=O)[C@H](CC(=O)O)NC(=O)[C@H](CC(=O)O)NC(=O)[C@H](CO)NC(C)=O)C(C)C)C(=O)N[C@@H](Cc1ccc(O)cc1)C(N)=O` (I: Ac-SDD[Cba]EFWCHVMY-NH2 / II: Ac-SDD[Cba]EFWCHVMY-NH2; disulfide I:8-II:8): the Kd on Frizzled-7 [1] was 20.3 nM; on Frizzled-7 [2], 9.7 ×10⁻³ /s. In addition, the Ka at Frizzled-7 [3] was 4.6 ×10⁵ /M/s.
Taken in the same sequence, the figures for `CSCC[C@H](NC(=O)[C@@H](NC(=O)[C@H](Cc1cnc[nH]1)NC(=O)[C@H](CSSC[C@H](NC(=O)[C@H](Cc1c[nH]c2ccccc12)NC(=O)[C@H](Cc1ccccc1)NC(=O)[C@H](CCC(=O)O)NC(=O)[C@H](CC(C)C)NC(=O)[C@H](CC(=O)O)NC(=O)[C@H](CC(=O)O)NC(=O)[C@H](CO)NC(C)=O)C(=O)N[C@@H](Cc1cnc[nH]1)C(=O)N[C@H](C(=O)N[C@@H](CCSC)C(=O)N[C@@H](Cc1ccc(Cl)c(Cl)c1)C(N)=O)C(C)C)NC(=O)[C@H](Cc1c[nH]c2ccccc12)NC(=O)[C@H](Cc1ccccc1)NC(=O)[C@H](CCC(=O)O)NC(=O)[C@H](CC(C)C)NC(=O)[C@H](CC(=O)O)NC(=O)[C@H](CC(=O)O)NC(=O)[C@H](CO)NC(C)=O)C(C)C)C(=O)N[C@@H](Cc1ccc(Cl)c(Cl)c1)C(N)=O` (I: Ac-SDDLEFWCHVM[Phe(3,4-Cl2)]-NH2 / II: Ac-SDDLEFWCHVM[Phe(3,4-Cl2)]-NH2; disulfide I:8-II:8) were 6.4 nM, 0.9 ×10⁻³ /s and 1.4 ×10⁵ /M/s.
On to `CC[C@H](C)[C@H](NC(=O)[C@H](Cc1cnc[nH]1)NC(=O)[C@H](CSSC[C@H](NC(=O)[C@H](Cc1c[nH]c2ccccc12)NC(=O)[C@H](Cc1ccccc1)NC(=O)[C@H](CCC(=O)O)NC(=O)[C@H](CC(C)C)NC(=O)[C@H](CC(=O)O)NC(=O)[C@H](CC(=O)O)NC(=O)[C@H](CO)NC(C)=O)C(=O)N[C@@H](Cc1cnc[nH]1)C(=O)N[C@H](C(=O)N[C@@H](CCSC)C(=O)N[C@@H](Cc1ccc(O)cc1)C(N)=O)[C@@H](C)CC)NC(=O)[C@H](Cc1c[nH]c2ccccc12)NC(=O)[C@H](Cc1ccccc1)NC(=O)[C@H](CCC(=O)O)NC(=O)[C@H](CC(C)C)NC(=O)[C@H](CC(=O)O)NC(=O)[C@H](CC(=O)O)NC(=O)[C@H](CO)NC(C)=O)C(=O)N[C@@H](CCSC)C(=O)N[C@@H](Cc1ccc(O)cc1)C(N)=O` (I: Ac-SDDLEFWCHIMY-NH2 / II: Ac-SDDLEFWCHIMY-NH2; disulfide I:8-II:8), for which the Kd on Frizzled-7 [1] came out at 0.18 nM; at Frizzled-7 [2], 0.96 ×10⁻³ /s. The Ka on Frizzled-7 [3] was found to be 55.1 ×10⁵ /M/s.
As for `CSCC[C@H](NC(=O)[C@@H](NC(=O)[C@H](Cc1cnc[nH]1)NC(=O)[C@H](CSSC[C@H](NC(=O)[C@H](Cc1c[nH]c2ccccc12)NC(=O)[C@H](CC(C)C)NC(=O)[C@H](CCCCN)NC(=O)[C@H](CC(C)C)NC(=O)[C@H](CC(=O)O)NC(=O)[C@H](CC(=O)O)NC(=O)[C@H](CO)NC(C)=O)C(=O)N[C@@H](Cc1cnc[nH]1)C(=O)N[C@H](C(=O)N[C@@H](CCSC)C(=O)N[C@@H](Cc1ccc(O)cc1)C(N)=O)C(C)C)NC(=O)[C@H](Cc1c[nH]c2ccccc12)NC(=O)[C@H](CC(C)C)NC(=O)[C@H](CCCCN)NC(=O)[C@H](CC(C)C)NC(=O)[C@H](CC(=O)O)NC(=O)[C@H](CC(=O)O)NC(=O)[C@H](CO)NC(C)=O)C(C)C)C(=O)N[C@@H](Cc1ccc(O)cc1)C(N)=O` (I: Ac-SDDLKLWCHVMY-NH2 / II: Ac-SDDLKLWCHVMY-NH2; disulfide I:8-II:8), the Kd at Frizzled-7 [1] turned out to be 0.142 nM; at Frizzled-7 [2] it was 0.58 ×10⁻³ /s. At Frizzled-7 [3], this compound came in with a Ka of 55.6 ×10⁵ /M/s.
`CSCC[C@H](NC(=O)[C@@H](NC(=O)[C@H](Cc1cnc[nH]1)NC(=O)[C@H](CSSC[C@H](NC(=O)[C@H](Cc1c[nH]c2ccccc12)NC(=O)[C@H](Cc1ccccc1)NC(=O)[C@H](CCC(=O)O)NC(=O)[C@H](CC1CCCC1)NC(=O)[C@H](CC(=O)O)NC(=O)[C@H](CC(=O)O)NC(=O)[C@H](CO)NC(C)=O)C(=O)N[C@@H](Cc1cnc[nH]1)C(=O)N[C@H](C(=O)N[C@@H](CCSC)C(=O)N[C@@H](Cc1ccc(O)cc1)C(N)=O)C(C)C)NC(=O)[C@H](Cc1c[nH]c2ccccc12)NC(=O)[C@H](Cc1ccccc1)NC(=O)[C@H](CCC(=O)O)NC(=O)[C@H](CC1CCCC1)NC(=O)[C@H](CC(=O)O)NC(=O)[C@H](CC(=O)O)NC(=O)[C@H](CO)NC(C)=O)C(C)C)C(=O)N[C@@H](Cc1ccc(O)cc1)C(N)=O` (I: Ac-SDD[Ala(cPent)]EFWCHVMY-NH2 / II: Ac-SDD[Ala(cPent)]EFWCHVMY-NH2; disulfide I:8-II:8): the Kd was determined as 2.1 nM at Frizzled-7 [1] and 9.9 ×10⁻³ /s at Frizzled-7 [2]. The compound further had a Ka at Frizzled-7 [3] of 46.5 ×10⁵ /M/s.
`CSCC[C@H](NC(=O)[C@@H](NC(=O)[C@H](Cc1cnc[nH]1)NC(=O)[C@H](CSSC[C@H](NC(=O)[C@H](Cc1c[nH]c2ccccc12)NC(=O)[C@H](Cc1ccccc1)NC(=O)[C@H](CCC(=O)O)NC(=O)[C@H](CC(C)C)NC(=O)[C@H](CC(=O)O)NC(=O)[C@H](CC(=O)O)NC(=O)[C@H](CO)NC(C)=O)C(=O)N[C@@H](Cc1cnc[nH]1)C(=O)N[C@H](C(=O)N[C@@H](CCSC)C(=O)N[C@@H](Cc1ccc(Cl)cc1Cl)C(N)=O)C(C)C)NC(=O)[C@H](Cc1c[nH]c2ccccc12)NC(=O)[C@H](Cc1ccccc1)NC(=O)[C@H](CCC(=O)O)NC(=O)[C@H](CC(C)C)NC(=O)[C@H](CC(=O)O)NC(=O)[C@H](CC(=O)O)NC(=O)[C@H](CO)NC(C)=O)C(C)C)C(=O)N[C@@H](Cc1ccc(Cl)cc1Cl)C(N)=O` (I: Ac-SDDLEFWCHVM[Phe(2,4-Cl2)]-NH2 / II: Ac-SDDLEFWCHVM[Phe(2,4-Cl2)]-NH2; disulfide I:8-II:8): the Kd at Frizzled-7 [1] was 22.5 nM; on Frizzled-7 [2] it was 2.89 ×10⁻³ /s. At Frizzled-7 [3], the Ka was determined as 1.29 ×10⁵ /M/s.
Consider `CSCC[C@H](NC(=O)[C@@H](NC(=O)[C@H](Cc1cnc[nH]1)NC(=O)[C@H](CSSC[C@H](NC(=O)[C@H](Cc1c[nH]c2ccccc12)NC(=O)[C@H](Cc1ccccc1)NC(=O)[C@H](CCC(=O)O)NC(=O)[C@H](CC(C)C)NC(=O)[C@H](CC(=O)O)NC(=O)[C@H](CC(=O)O)NC(=O)[C@H](CO)NC(C)=O)C(=O)N[C@@H](Cc1cnc[nH]1)C(=O)N[C@H](C(=O)N[C@@H](CCSC)C(=O)N[C@@H](Cc1ccc(C(F)(F)F)cc1)C(N)=O)C(C)C)NC(=O)[C@H](Cc1c[nH]c2ccccc12)NC(=O)[C@H](Cc1ccccc1)NC(=O)[C@H](CCC(=O)O)NC(=O)[C@H](CC(C)C)NC(=O)[C@H](CC(=O)O)NC(=O)[C@H](CC(=O)O)NC(=O)[C@H](CO)NC(C)=O)C(C)C)C(=O)N[C@@H](Cc1ccc(C(F)(F)F)cc1)C(N)=O` (I: Ac-SDDLEFWCHVM[Phe(4-CF3)]-NH2 / II: Ac-SDDLEFWCHVM[Phe(4-CF3)]-NH2; disulfide I:8-II:8), for which the Kd was 13.1 nM at Frizzled-7 [1] and 1.9 ×10⁻³ /s on Frizzled-7 [2]. This compound also returned a Ka on Frizzled-7 [3] of 1.45 ×10⁵ /M/s.
For the compound `CSCC[C@H](NC(=O)[C@@H](NC(=O)[C@H](Cc1cnc[nH]1)NC(=O)[C@H](CSSC[C@H](NC(=O)[C@H](Cc1c[nH]c2ccccc12)NC(=O)[C@H](Cc1ccccc1)NC(=O)[C@H](CCC(=O)O)NC(=O)[C@H](CCc1ccccc1)NC(=O)[C@H](CC(=O)O)NC(=O)[C@H](CC(=O)O)NC(=O)[C@H](CO)NC(C)=O)C(=O)N[C@@H](Cc1cnc[nH]1)C(=O)N[C@H](C(=O)N[C@@H](CCSC)C(=O)N[C@@H](Cc1ccc(O)cc1)C(N)=O)C(C)C)NC(=O)[C@H](Cc1c[nH]c2ccccc12)NC(=O)[C@H](Cc1ccccc1)NC(=O)[C@H](CCC(=O)O)NC(=O)[C@H](CCc1ccccc1)NC(=O)[C@H](CC(=O)O)NC(=O)[C@H](CC(=O)O)NC(=O)[C@H](CO)NC(C)=O)C(C)C)C(=O)N[C@@H](Cc1ccc(O)cc1)C(N)=O` (I: Ac-SDD[hPhe]EFWCHVMY-NH2 / II: Ac-SDD[hPhe]EFWCHVMY-NH2; disulfide I:8-II:8), the figures for the Kd on Frizzled-7 [1] and on Frizzled-7 [2] were 1.4 nM and 9.1 ×10⁻³ /s, respectively. The Ka on Frizzled-7 [3] is 69.6 ×10⁵ /M/s.
